Data: patent US20240316022A1 (TYRA BIOSCIENCES, INC., priority 2021, published 2024)
pKd: −log10 of the molar value. Counter-ions that a name gives are not always drawn. Like-named read-outs stand apart in the source and are kept apart here.

What was measured:
Experiment in all cases: Kinase binding assay (kinase-tagged T7 phage, qPCR), Kd
FGFR1 = target: T1, FGFR1 (Homo sapiens, UniProt P11362); settings: for Kd: read-out: FGFR1 (Kd nM)
T1 construct: made in house; host or cells: E. coli derived from BL21, infected with T7 phage

FGFR2 = target: T2, FGFR2 (Homo sapiens, UniProt P21802); settings: for Kd: read-out: FGFR2 (Kd nM)
T2 construct: made in house; host or cells: E. coli derived from BL21, infected with T7 phage

FGFR4 = target: T3, FGFR4 (Homo sapiens, UniProt P22455); settings: for Kd: read-out: FGFR4 (Kd nM)
T3 construct: made in house; host or cells: E. coli derived from BL21, infected with T7 phage

FGFR3 = target: T4, FGFR3 (Homo sapiens, UniProt P22607); settings: for Kd: read-out: FGFR3 (Kd nM)
T4 construct: made in house; host or cells: E. coli derived from BL21, infected with T7 phage
T4 sequence (P22607 23-806): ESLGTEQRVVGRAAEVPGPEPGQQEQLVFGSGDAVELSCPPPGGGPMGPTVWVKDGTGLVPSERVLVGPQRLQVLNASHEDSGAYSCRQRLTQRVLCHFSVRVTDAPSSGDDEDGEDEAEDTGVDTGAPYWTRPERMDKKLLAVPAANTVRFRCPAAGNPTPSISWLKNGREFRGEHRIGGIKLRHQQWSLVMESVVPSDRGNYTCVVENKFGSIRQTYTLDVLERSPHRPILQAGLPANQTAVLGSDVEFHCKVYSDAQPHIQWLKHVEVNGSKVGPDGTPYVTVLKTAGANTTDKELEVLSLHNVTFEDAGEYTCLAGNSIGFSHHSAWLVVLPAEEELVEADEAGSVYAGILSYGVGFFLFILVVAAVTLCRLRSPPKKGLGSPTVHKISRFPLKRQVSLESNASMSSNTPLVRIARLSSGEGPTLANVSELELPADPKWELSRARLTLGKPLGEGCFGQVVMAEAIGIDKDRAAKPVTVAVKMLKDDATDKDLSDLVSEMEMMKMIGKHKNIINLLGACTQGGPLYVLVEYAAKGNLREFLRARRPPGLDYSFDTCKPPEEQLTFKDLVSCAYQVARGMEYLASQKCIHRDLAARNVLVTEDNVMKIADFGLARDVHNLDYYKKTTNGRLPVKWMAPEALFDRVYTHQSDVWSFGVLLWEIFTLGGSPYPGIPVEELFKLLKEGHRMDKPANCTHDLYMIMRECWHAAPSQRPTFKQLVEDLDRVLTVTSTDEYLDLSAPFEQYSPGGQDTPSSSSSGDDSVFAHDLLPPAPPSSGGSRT

T2 sequence (P21802 22-821): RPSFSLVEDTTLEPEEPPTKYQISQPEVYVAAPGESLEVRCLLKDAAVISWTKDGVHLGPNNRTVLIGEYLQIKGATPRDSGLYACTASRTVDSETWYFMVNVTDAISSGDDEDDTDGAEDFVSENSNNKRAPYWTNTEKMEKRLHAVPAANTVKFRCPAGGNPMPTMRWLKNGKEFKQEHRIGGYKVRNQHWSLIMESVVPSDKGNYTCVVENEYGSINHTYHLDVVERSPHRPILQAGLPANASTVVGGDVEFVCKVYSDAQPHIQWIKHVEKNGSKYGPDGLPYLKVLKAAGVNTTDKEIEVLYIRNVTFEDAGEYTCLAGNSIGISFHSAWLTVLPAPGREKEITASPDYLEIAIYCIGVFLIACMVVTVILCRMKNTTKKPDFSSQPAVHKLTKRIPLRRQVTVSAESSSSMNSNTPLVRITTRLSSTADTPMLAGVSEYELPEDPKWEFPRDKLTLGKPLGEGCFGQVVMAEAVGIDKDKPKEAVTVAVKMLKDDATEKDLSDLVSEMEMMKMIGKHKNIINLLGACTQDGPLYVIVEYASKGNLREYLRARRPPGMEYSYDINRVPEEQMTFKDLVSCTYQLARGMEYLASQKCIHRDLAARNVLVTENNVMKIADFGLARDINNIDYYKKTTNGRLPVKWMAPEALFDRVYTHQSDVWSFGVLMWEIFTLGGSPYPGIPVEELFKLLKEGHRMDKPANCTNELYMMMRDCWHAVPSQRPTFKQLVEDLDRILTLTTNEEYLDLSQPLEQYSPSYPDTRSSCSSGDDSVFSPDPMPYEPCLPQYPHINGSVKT
T1 sequence (P11362 22-822): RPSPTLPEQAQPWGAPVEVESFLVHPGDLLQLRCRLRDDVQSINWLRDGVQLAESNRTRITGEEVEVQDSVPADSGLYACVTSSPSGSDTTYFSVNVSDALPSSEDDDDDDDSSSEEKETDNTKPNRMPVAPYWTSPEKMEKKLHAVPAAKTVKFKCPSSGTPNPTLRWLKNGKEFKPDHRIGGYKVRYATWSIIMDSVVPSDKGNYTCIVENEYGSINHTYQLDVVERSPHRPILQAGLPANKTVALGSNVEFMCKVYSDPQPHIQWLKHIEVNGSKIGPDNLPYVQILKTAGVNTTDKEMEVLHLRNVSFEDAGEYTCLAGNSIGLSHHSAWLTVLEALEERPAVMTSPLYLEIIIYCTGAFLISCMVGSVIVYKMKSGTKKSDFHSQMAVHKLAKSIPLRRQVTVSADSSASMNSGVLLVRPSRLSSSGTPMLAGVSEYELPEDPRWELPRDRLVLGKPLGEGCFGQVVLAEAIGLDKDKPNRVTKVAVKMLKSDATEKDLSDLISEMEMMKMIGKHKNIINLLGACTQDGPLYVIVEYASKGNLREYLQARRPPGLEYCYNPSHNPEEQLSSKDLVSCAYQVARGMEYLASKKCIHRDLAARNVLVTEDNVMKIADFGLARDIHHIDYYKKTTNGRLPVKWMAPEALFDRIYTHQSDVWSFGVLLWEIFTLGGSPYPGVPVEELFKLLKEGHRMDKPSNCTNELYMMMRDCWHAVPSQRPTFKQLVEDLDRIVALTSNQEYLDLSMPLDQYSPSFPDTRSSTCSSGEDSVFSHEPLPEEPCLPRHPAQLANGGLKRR
T3 sequence (P22455 22-802): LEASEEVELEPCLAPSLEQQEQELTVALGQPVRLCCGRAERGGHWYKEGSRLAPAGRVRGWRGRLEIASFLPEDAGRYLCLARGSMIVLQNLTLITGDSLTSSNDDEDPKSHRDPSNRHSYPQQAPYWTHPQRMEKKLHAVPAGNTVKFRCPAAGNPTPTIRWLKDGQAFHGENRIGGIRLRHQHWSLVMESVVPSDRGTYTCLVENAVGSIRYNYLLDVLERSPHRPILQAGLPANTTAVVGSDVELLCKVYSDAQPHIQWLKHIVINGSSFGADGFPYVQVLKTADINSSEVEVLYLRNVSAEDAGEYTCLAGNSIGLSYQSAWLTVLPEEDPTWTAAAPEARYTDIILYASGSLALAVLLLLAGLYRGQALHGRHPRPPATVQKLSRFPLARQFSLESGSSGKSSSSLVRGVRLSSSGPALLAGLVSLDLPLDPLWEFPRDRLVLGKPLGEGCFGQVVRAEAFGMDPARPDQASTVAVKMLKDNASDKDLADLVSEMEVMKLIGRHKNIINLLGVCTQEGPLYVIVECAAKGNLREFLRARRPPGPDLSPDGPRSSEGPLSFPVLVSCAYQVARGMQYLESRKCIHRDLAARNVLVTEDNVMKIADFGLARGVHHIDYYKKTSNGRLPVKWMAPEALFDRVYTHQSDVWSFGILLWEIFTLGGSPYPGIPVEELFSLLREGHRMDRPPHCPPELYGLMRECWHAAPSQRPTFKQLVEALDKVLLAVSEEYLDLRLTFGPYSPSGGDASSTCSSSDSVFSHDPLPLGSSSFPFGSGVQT

For `Cc1cnnc(C)c1[C@@H](C)Oc1ccc2[nH]nc(-c3cc(C#N)cc(N4CC5(CN(C)C5)C4)c3)c2c1` [Example 87, 3-[5-[(1R)-1-(3,5-dimethylpyridazin-4-yl)ethoxy]-1H-indazol-3-yl]-5-(6-methyl-2,6-diazaspiro[3.3]heptan-2-yl)benzonitrile], the Kd (FGFR1) was over 1000 nM, the Kd (FGFR2) was 250 to 1000 nM and the Kd (FGFR4) was 250 to 1000 nM. It also gave a Kd (FGFR3) of 250 to 1000 nM.

`COc1ncc(-c2n[nH]c3ccc(O[C@H](C)c4c(C)cnnc4C)cc23)cc1C#N` [Example 88, 5-[5-[(1R)-1-(3,5-dimethylpyridazin-4-yl)ethoxy]-1H-indazol-3-yl]-2-methoxy-pyridine-3-carbonitrile] was tested, and the Kd (FGFR1) was 250 to 1000 nM, the Kd (FGFR2) was 250 to 1000 nM and the Kd (FGFR4) was 0.1 to 100 nM. It also gave a Kd (FGFR3) of 100 to 250 nM.

In the case of `Cc1cnnc(C)c1[C@@H](C)Oc1ccc2[nH]nc(-c3cnc(N(C)C)c(C#N)c3)c2c1` [Example 89, (R)-2-(dimethylamino)-5-(5-(1-(3,5-dimethylpyridazin-4-yl)ethoxy)-1H-indazol-3-yl)nicotinonitrile], the Kd (FGFR1) was 100 to 250 nM, the Kd (FGFR2) was 100 to 250 nM and the Kd (FGFR4) was 0.1 to 100 nM. It also gave a Kd (FGFR3) of 0.1 to 100 nM.

`Cc1cnnc(C)c1[C@@H](C)Oc1ccc2[nH]nc(-c3cc(C#N)cc(C4CCOC4)c3)c2c1` (stereo partly drawn) [Example 90, 3-(5-((R)-1-(3,5-dimethylpyridazin-4-yl)ethoxy)-1H-indazol-3-yl)-5-(tetrahydrofuran-3-yl)benzonitrile] showed a Kd (FGFR1) of 250 to 1000 nM, a Kd (FGFR2) of 0.1 to 100 nM and a Kd (FGFR4) of 0.1 to 100 nM. For the same compound, the Kd (FGFR3) was 0.1 to 100 nM.

`Cc1cnnc(C)c1[C@H](C)Oc1ccc2[nH]nc(-c3cc(C#N)cc(N4CC5(CN(C)C5)C4)c3)c2c1` [Example 91, (S)-3-(5-(1-(3,5-dimethylpyridazin-4-yl)ethoxy)-1H-indazol-3-yl)-5-(6-methyl-2,6-diazaspiro[3.3]heptan-2-yl)benzonitrile] gave a Kd (FGFR1) of over 1000 nM, a Kd (FGFR2) of over 1000 nM and a Kd (FGFR4) of over 1000 nM. The Kd (FGFR3) was over 1000 nM.

For `COc1cc(-c2n[nH]c3ccc(O[C@H](C)c4c(C)cnnc4C)cc23)cc(C#N)c1F` [Example 93, (R)-5-(5-(1-(3,5-dimethylpyridazin-4-yl)ethoxy)-1H-indazol-3-yl)-2-fluoro-3-methoxybenzonitrile], the Kd (FGFR1) was over 1000 nM, the Kd (FGFR2) was over 1000 nM and the Kd (FGFR4) was 100 to 250 nM. It also gave a Kd (FGFR3) of over 1000 nM.

`C[C@@H](Oc1ccc2[nH]nc(-c3ccc4c(c3)COC3(CCNCC3)O4)c2c1)c1c(Cl)cncc1Cl` [Example 94, (R)-6-(5-(1-(3,5-Dichloropyridin-4-yl)ethoxy)-1H-indazol-3-yl)-4H-spiro[benzo[d][1,3]dioxine-2,4′-piperidine] TFA salt] gave a pKd (FGFR1) of 7.00 to 10.00, a pKd (FGFR2) of 7.00 to 10.00 and a pKd (FGFR4) of 7.00 to 10.00. It also gave a pKd (FGFR3) of 7.00 to 10.00.

`COc1cc(C#N)cc(-c2n[nH]c3cc(OC)c(O[C@@H](C)c4c(C)cnnc4C)cc23)c1` [Example 97, (S)-3-(5-(1-(3,5-dimethylpyridazin-4-yl)ethoxy)-6-methoxy-1H-indazol-3-yl)-5-methoxybenzonitrile] gave a Kd (FGFR1) of over 1000 nM, a Kd (FGFR2) of over 1000 nM and a Kd (FGFR4) of 250 to 1000 nM. The Kd (FGFR3) was over 1000 nM.

Work on `COc1cc(-c2n[nH]c3cc(OC)c(O[C@H](C)c4c(C)cnnc4C)cc23)cc(C#N)n1` [Example 98, (R)-4-(5-(1-(3,5-dimethylpyridazin-4-yl)ethoxy)-6-methoxy-1H-indazol-3-yl)-6-methoxypicolinonitrile] yielded a Kd (FGFR1) of 100 to 250 nM, a Kd (FGFR2) of 100 to 250 nM and a Kd (FGFR4) of 0.1 to 100 nM. The Kd (FGFR3) was 100 to 250 nM.

In the case of `CCN1CCC2(CC1)CC(=O)c1cc(-c3n[nH]c4ccc(O[C@H](C)c5c(C)cnnc5C)cc34)ccc1O2` [Example 99, (R)-6-(5-(1-(3,5-dimethylpyridazin-4-yl)ethoxy)-1H-indazol-3-yl)-1′-ethylspiro[chroman-2,4′-piperidin]-4-one], the Kd (FGFR1) was 0.1 to 100 nM, the Kd (FGFR2) was 0.1 to 100 nM and the Kd (FGFR4) was 0.1 to 100 nM. For the same compound, the Kd (FGFR3) was 0.1 to 100 nM.

`COc1cc(-c2n[nH]c3ccc(O[C@H](C)c4c(C)cnnc4C)cc23)cc(C#N)n1` [Example 100, (R)-4-(5-(1-(3,5-dimethylpyridazin-4-yl)ethoxy)-1H-indazol-3-yl)-6-methoxypicolinonitrile] was tested, and the Kd (FGFR1) was 250 to 1000 nM, the Kd (FGFR2) was 250 to 1000 nM and the Kd (FGFR4) was 0.1 to 100 nM. It also gave a Kd (FGFR3) of 100 to 250 nM.

`COc1cc2[nH]nc(-c3cc(C#N)c(OC)c(OC)c3)c2cc1O[C@H](C)c1c(C)cnnc1C` [Example 102, (R)-5-(5-(1-(3,5-dimethylpyridazin-4-yl)ethoxy)-6-methoxy-1H-indazol-3-yl)-2,3-dimethoxybenzonitrile] was tested, and the Kd (FGFR1) was 100 to 250 nM, the Kd (FGFR2) was 100 to 250 nM and the Kd (FGFR4) was 0.1 to 100 nM. For the same compound, the Kd (FGFR3) was 0.1 to 100 nM.

For `CCN1CCC2(CC1)CC(O)c1cc(-c3n[nH]c4ccc(O[C@H](C)c5c(Cl)cncc5Cl)cc34)ccc1O2` (stereo partly drawn) [Example 103, 6-[5-[(1R)-1-(3,5-Dichloro-4-pyridyl)ethoxy]-1H-indazol-3-yl]-1′-ethyl-spiro[chromane-2,4′-piperidine]-4-ol], the Kd (FGFR1; given as a number, not a class symbol) was 45 nM, the Kd (FGFR2) was 100 to 250 nM and the Kd (FGFR4) was 0.1 to 100 nM. The Kd (FGFR3) was 0.1 to 100 nM.

Compound `C[C@@H](Oc1ccc2[nH]nc(-c3ccc4c(c3)CCC3(CCNCC3)O4)c2c1)c1c(Cl)cncc1Cl` [Example 104, 6-[5-[(1R)-1-(3,5-dichloro-4-pyridyl)ethoxy]-1H-indazol-3-yl]spiro[chromane-2,4′-piperidine]] has a Kd (FGFR1) of 0.1 to 100 nM, a Kd (FGFR2) of 0.1 to 100 nM and a Kd (FGFR4) of 0.1 to 100 nM. For the same compound, the Kd (FGFR3) was 0.1 to 100 nM.
